From patent US20190142835A1, “INHIBITION OF AUTOPHAGY USING PHOSPHOLIPASE A2 INHIBITORS” (OREGON HEALTH & SCIENCE UNIVERSITY, priority 2017, published 2019)

System: patient-derived RCC organotypic cultures
Assay: Patient tumor ex vivo organotypic culture
Format: cell-based, human
Conditions: 24 hours
Method: Tumor tissue samples were collected at the time of surgical removal for consented patients and transported in IMEM+FBS+PS. Tissue was sliced into thin sections using a surgical knife. Sections were cultured on an organotypic insert (EMD#PICMORG50) for 24 hours in IMEM+10% FBS+1% PS+50 ug/ml holo-transferrin with drug. A section of each tumor was immediately fixed in 10% buffered formalin to confirm tissue viability. After culture, treated tissue sections were fixed in 10% buffered formalin and embedded in paraffin. Paraffin embedded tumors were evaluated for morphology (H&E) and immunofluorescent signaling.
H&E slides of formalin fixed, paraffin embedded tissue was used to assess morphological integrity of tumor samples. Once integrity was confirmed, immunofluorescent analysis was performed for p-S6 (1:500 CST), p-AKT (1:200 CST) and LC3B (1:250 CST). Four micron sections were cut, de-paraffinized and rehydrated. Antigen retrieval was performed using citrate for 4 min in a pressure cooker. Slides were blocked using 2.5% normal goat serum for 30 min then incubated in primary antibody for 1 hr followed by secondary antibody mouse anti-rabbit alexa 488 (1:1000) for 30 min. Slides were rinsed in PBS, air dried, and coverslipped using Dako mounting media with Dapi.

N#CCNC(=O)c1ccc(-c2ccnc(Nc3ccc(N4CCOCC4)cc3)n2)cc1 [CYT387]
LCB expression and phosphorylated S6 levels: significantly induced LCB expression while simultaneously reducing phosphorylated S6 levels
